Square brackets hold non-standard residues; d marks the D form. Peptide text beside a SMILES is read from it. * marks the point of attachment. Pyrrolidino(3-NH2-3-COOH) = NC1(C(=O)O)CCN(*)C1; dTic = O=C(O)[C@H]1Cc2ccccc2CN1 Some results are limits rather than exact numbers.

The results in this text go back to BindingDB's records for patent US12215173 (Humanwell Pharmaceutical US, 2025).

Common to all, as to assay: Opioid Receptor Binding Assay
Experiment [1] concerns the target Mu-type opioid receptor (Homo sapiens, UniProt P35372).
For experiment [2], the target named is Delta-type opioid receptor (Homo sapiens, UniProt P41143).
Experiment [3] has as its target Kappa-type opioid receptor (Homo sapiens, UniProt P41145).

Sequence of Delta-type opioid receptor (P41143 whole entry): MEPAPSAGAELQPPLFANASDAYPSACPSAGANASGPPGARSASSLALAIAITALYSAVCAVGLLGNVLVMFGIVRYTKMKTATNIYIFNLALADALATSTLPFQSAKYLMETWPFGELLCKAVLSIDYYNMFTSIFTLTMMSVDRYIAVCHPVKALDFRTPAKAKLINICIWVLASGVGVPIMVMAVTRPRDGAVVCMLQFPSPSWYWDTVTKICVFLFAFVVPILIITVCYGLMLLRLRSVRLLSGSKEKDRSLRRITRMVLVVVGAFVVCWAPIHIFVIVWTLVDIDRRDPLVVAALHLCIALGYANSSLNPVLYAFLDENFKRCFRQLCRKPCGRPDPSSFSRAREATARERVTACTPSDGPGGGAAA
Sequence of Kappa-type opioid receptor (P41145 whole entry): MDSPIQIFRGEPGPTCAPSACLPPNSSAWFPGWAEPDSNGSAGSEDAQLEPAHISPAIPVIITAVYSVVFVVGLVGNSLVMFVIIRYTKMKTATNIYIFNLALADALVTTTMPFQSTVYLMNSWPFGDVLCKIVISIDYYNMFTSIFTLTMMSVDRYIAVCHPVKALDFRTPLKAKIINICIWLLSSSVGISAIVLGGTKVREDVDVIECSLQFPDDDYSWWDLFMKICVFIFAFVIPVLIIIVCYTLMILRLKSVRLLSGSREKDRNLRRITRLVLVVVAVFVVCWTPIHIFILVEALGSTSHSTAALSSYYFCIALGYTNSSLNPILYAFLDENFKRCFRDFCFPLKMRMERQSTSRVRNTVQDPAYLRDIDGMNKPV
Sequence of Mu-type opioid receptor (P35372 whole entry): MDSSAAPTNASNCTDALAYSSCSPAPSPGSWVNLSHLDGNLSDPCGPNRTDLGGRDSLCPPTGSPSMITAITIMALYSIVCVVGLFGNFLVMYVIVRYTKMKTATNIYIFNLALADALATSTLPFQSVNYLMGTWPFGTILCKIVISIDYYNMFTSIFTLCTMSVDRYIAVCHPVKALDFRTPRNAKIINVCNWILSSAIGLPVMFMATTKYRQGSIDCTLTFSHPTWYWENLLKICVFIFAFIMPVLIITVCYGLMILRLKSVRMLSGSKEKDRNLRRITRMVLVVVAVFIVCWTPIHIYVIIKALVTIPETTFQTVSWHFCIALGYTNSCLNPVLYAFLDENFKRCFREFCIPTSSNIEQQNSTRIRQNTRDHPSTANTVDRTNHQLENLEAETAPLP

The IC50 is the point on the concentration scale where inhibition reaches its midpoint. A lower IC50 goes with greater potency in that assay. In the case of `CC(C)C[C@@H](NC(=O)[C@@H](Cc1ccccc1)NC(=O)[C@H](N)Cc1ccccc1)C(=O)N[C@H](CCCCN)C(=O)NCc1cccc(C(=O)O)n1` [US12215173, Compound 13-6], the IC50 was greater than 10 µM in experiment [1], greater than 10 µM in experiment [2] and 0.00945 µM in experiment [3].

`CC(C)C[C@@H](NC(=O)[C@@H](Cc1ccccc1)NC(=O)[C@H](N)Cc1ccccc1)C(=O)N[C@H](CCCCN)C(=O)NCCC[C@H](N)C(=O)O` [US12215173, Compound 13-44]: the results for the half-maximal inhibitory concentration (IC50) in experiment [1], in experiment [2] and in experiment [3] were greater than 10 µM, greater than 10 µM and 0.00046 µM, respectively.

For the compound `CC(C)C[C@@H](NC(=O)[C@@H](Cc1ccccc1)NC(=O)[C@H](N)Cc1ccccc1)C(=O)N[C@H](CCCCN)C(=O)N1CCC(O)(CO)CC1` [US12215173, Compound 13-65], the half-inhibitory concentration (IC50) in experiment [1] was greater than 10 µM; in experiment [2], greater than 10 µM; in experiment [3] it was 0.00045 µM.

As to `COC(=O)C1(N)CCN(C(=O)[C@@H](CCCCN)NC(=O)[C@H](NC(=O)[C@@H](Cc2ccccc2)NC(=O)[C@H](N)Cc2ccccc2)C(C)(C)C)CC1` [US12215173, Compound 100], the half-inhibitory concentration (IC50) in experiment [1] was greater than 10 µM; in experiment [2], greater than 10 µM; in experiment [3], 0.013 µM.

In the case of `COC(=O)C1(N)CCN(C(=O)[C@@H](CCCCN)NC(=O)[C@H](NC(=O)[C@@H](Cc2ccccc2)NC(=O)[C@H](N)Cc2ccccc2)C(C)(C)C)C1` (stereo partly specified) [US12215173, Compound 103], the IC50 is greater than 10 µM in experiment [1], greater than 10 µM in experiment [2] and 0.0144 µM in experiment [3].

Regarding `CC(C)C[C@@H](NC(=O)[C@@H](Cc1ccccc1)NC(=O)[C@H]1Cc2ccccc2CN1)C(=O)N[C@H](CCCCN)C(=O)N1CCC(N)(C(=O)O)C1` (stereo partly drawn) [US12215173, Compound 169] (H-[dTic][dF][dL][dK]-{Pyrrolidino(3-NH2-3-COOH)}), in experiment [3], the IC50 came out at 0.0888 µM.

As to `COC(=O)C1(N)CCN(C(=O)[C@@H](CCCCN)NC(=O)[C@@H](CC(C)C)NC(=O)[C@@H](Cc2ccccc2)NC(=O)[C@H]2Cc3ccccc3CN2)CC1` [US12215173, Compound 171], the figures for the half-maximal inhibitory concentration (IC50) in experiment [1], in experiment [2] and in experiment [3] were greater than 10 µM, greater than 10 µM and 0.00083 µM, respectively.

On to `CC(C)C[C@@H](NC(=O)[C@@H](Cc1ccccc1)NC(=O)[C@H]1Cc2ccccc2CN1)C(=O)N[C@H](CCCCN)C(=O)N1CCC(N)(C(=O)O)CC1` [US12215173, Compound 172], for which the values for the concentration for half-maximal inhibition (IC50) in experiment [1], in experiment [2] and in experiment [3] were greater than 10 µM, greater than 10 µM and 0.00402 µM, respectively.

With `COC(=O)C1(N)CCN(C(=O)[C@@H](CCCCN)NC(=O)[C@@H](CC(C)C)NC(=O)[C@@H](Cc2ccccc2)NC(=O)[C@H](N)Cc2ccc(F)cc2)C1` (stereo partly specified) [US12215173, Compound 181], the half-maximal inhibitory concentration (IC50) in experiment [1] was greater than 10 µM; in experiment [2], greater than 10 µM; in experiment [3] it was 0.0004 µM.

As for `COC(=O)C1(N)CCN(C(=O)[C@@H](CCCCN)NC(=O)[C@@H](CC(C)C)NC(=O)[C@@H](Cc2ccccc2)NC(=O)[C@H](N)Cc2ccc(F)cc2)CC1` [US12215173, Compound 184], the concentration for half-maximal inhibition (IC50) in experiment [1] is 8.09 µM; in experiment [2], greater than 10 µM; in experiment [3] it was 0.00025 µM.

As to `COC(=O)C1(N)CCN(C(=O)[C@@H](CCCCN)NC(=O)[C@@H](CC(C)C)NC(=O)[C@@H](Cc2ccccc2)NC(=O)[C@H](N)Cc2ccc(C(F)(F)F)cc2)C1` (stereo partly specified) [US12215173, Compound 194], the concentration for half-maximal inhibition (IC50) in experiment [1] is 7.34 µM; in experiment [2], greater than 10 µM; in experiment [3], 0.00407 µM.
